Experiments:
KRAS G12D/RAF1 = target: T1, KRAS G12D/RAF1 (Homo sapiens, UniProt P01116, G12D); test: Protein-protein interaction (PPI) HTRF assay KRAS G12D/RAF1; format: binding; conditions: Table 4
T1 construct: His6-MBP (N, cleaved yes); made in house; host or cells: E. coli
How it was run: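 HTRF pairing of His-tagged RAF1 (52-131) plus Tb-cryptate donor with GppNHp-exchanged biotin-RAS (KRAS 1-169 wt/G12D/G12V, NRAS wt) plus streptavidin-d2 acceptor; compound sits 30 min with RAS first, then 1 h RT with RAF1. IC50 derived from 665/615 ratio, untagged RAF1 defining full inhibition.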

[1] = target: T2, GST-tagged KRAS-G12D (2-169) (Homo sapiens, UniProt P01116, G12D); test: Nucleotide exchange assay (NEA), SOS-mediated, HTRF, KRAS G12D; format: biochemical; conditions: Table 4; IC50 extracted at 30 min
T2 construct: GST-tagged KRAS-G12D (2-169, Reaction Biology, MSC-11-539); purchased Reaction Biology MSC-11-539 (KRAS G12D); MSC-11-502 (SOS1cat)
How it was run: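 IC50 values come from 4-parameter fits at the 30 min time point of an SOS-driven exchange read by HTRF, normalised to DMSO (0%) and SOS-free blank (100%). Final reaction: 5 nM GST-KRAS-G12D (2-169), 20 nM SOScat, 150 nM fluorescent GTP-DY-647P1, after 1 h RT compound preincubation with KRAS and Tb-cryptate anti-GST.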

T2 sequence (P01116 2-169 isoform P01116-2 G12D): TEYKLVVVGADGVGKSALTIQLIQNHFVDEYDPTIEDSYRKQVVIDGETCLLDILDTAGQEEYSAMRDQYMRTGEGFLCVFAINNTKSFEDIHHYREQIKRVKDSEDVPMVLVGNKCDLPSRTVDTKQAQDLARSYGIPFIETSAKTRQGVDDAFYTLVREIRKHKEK
T1 sequence (P01116 with tags, fused parts or gaps isoform P01116-2 G12D): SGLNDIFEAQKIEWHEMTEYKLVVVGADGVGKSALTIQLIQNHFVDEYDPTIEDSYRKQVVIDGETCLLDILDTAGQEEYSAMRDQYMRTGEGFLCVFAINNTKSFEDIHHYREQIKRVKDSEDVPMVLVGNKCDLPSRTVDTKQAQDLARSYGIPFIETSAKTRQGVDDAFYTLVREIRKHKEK

| SMILES | IC50 (KRAS G12D/RAF1) [nM] | IC50 [1] [nM] |
| --- | --- | --- |
| N#Cc1cnc(OCC2(CN3CCOCC3)CC2)nc1N1CC2(CCc3sc(N)c(C#N)c32)C1 [Compound 66, 2-amino-1′-[5-cyano-2-[[1-(morpholinomethyl)cyclopropyl]methoxy]pyrimidin-4-yl]spiro[5,6-dihydrocyclopenta[b]thiophene-4,3′-azetidine]-3-carbonitrile] | 10000 to 100000 | 100 to 1000 |
| CC1Cn2nncc2CN1c1nc(OC[C@@]23CCCN2C[C@H](F)C3)nc(N2CC3(CCc4sc(N)c(C#N)c43)C2)c1C#N (stereo partly drawn) [Compound 67, 2-amino-1′-[5-cyano-6-(6-methyl-6,7-dihydro-4H-triazolo[1,5-a]pyrazin-5-yl)-2-[[(2R,8S)-2-fluoro-1,2,3,5,6,7-hexahydropyrrolizin-8-yl]methoxy]pyrimidin-4-yl]spiro[5,6-dihydrocyclopenta[b]thiophene-4,3′-azetidine]-3-carbonitrile] | 10000 to 100000 | 100 to 1000 |
| N#Cc1c(N2C[C@H]3CC[C@@H](C2)N3)nc(OCC2(CN3CCOCC3)CC2(F)F)nc1N1CC2(CCc3sc(N)c(C#N)c32)C1 (stereo partly drawn) [Compound 68, 2-amino-1-[5-cyano-2-[[2,2-difluoro-1-(morpholinomethyl)cyclopropyl]methoxy]-6-[(1R,5S)-3,8-diazabicyclo[3.2.1]octan-3-yl]pyrimidin-4-yl]spiro[5,6-dihydrocyclopenta[b]thiophene-4,3′-azetidine]-3-carbonitrile] | 1000 to 10000 | < 10 |
| N#Cc1c(N2C[C@H]3CC[C@@H](C2)N3)nc(OCC2(CN3CCSCC3)CC2)nc1N1CC2(CCc3sc(N)c(C#N)c32)C1 [Compound 72, 2-amino-1′-[5-cyano-6-[(1R,5S)-3,8-diazabicyclo[3.2.1]octan-3-yl]-2-[[1-(thiomorpholinomethyl)cyclopropyl]methoxy]pyrimidin-4-yl]spiro[5,6-dihydrocyclopenta[b]thiophene-4,3′-azetidine]-3-carbonitrile] | 100 to 1000 | < 10 |
| C[C@H]1COCCN1CC1(COc2nc(N3C[C@H]4CC[C@@H](C3)N4)c(C#N)c(N3CC4(CCc5sc(N)c(C#N)c54)C3)n2)CC1 [Compound 77, 2-amino-1′-[5-cyano-6-[(1R,5S)-3,8-diazabicyclo[3.2.1]octan-3-yl]-2-[[1-[[(3S)-3-methylmorpholin-4-yl]methyl]cyclopropyl]methoxy]pyrimidin-4-yl]spiro[5,6-dihydrocyclopenta[b]thiophene-4,3′-azetidine]-3-carbonitrile] | 10000 to 100000 | < 10 |
| N#Cc1c(N2C[C@H]3CC[C@@H](C2)N3)nc(OCC2(CN3C[C@@H](F)[C@@H](F)C3)CC2)nc1N1CC2(CCc3sc(N)c(C#N)c32)C1 [Compound 78, 2-amino-1′-[5-cyano-6-[(1R,5S)-3,8-diazabicyclo[3.2.1]octan-3-yl]-2-[[1-[[(3S,4R)-3,4-difluoropyrrolidin-1-yl]methyl]cyclopropyl]methoxy]pyrimidin-4-yl]spiro[5,6-dihydrocyclopenta[b]thiophene-4,3′-azetidine]-3-carbonitrile] | > 100000 | 10 to 100 |
| C[C@@H]1COCCN1CC1(COc2nc(N3C[C@H]4CC[C@@H](C3)N4)c(C#N)c(N3CC4(CCc5sc(N)c(C#N)c54)C3)n2)CC1 [Compound 82, 2-amino-1′-[5-cyano-6-[(1R,5S)-3,8-diazabicyclo[3.2.1]octan-3-yl]-2-[[1-[[(3R)-3-methylmorpholin-4-yl]methyl]cyclopropyl]methoxy]pyrimidin-4-yl]spiro[5,6-dihydrocyclopenta[b]thiophene-4,3′-azetidine]-3-carbonitrile] | 10000 to 100000 | 100 to 1000 |
| CN1CCC[C@H]1COc1nc(N2C[C@H]3CC[C@@H](C2)N3)c(C#N)c(N2CC3(CCc4sc(N)c(C#N)c43)C2)n1 [Compound 83, 2-amino-1′-[5-cyano-6-[(1R,5S)-3,8-diazabicyclo[3.2.1]octan-3-yl]-2-[[(2S)-1-methylpyrrolidin-2-yl]methoxy]pyrimidin-4-yl]spiro[5,6-dihydrocyclopenta[b]thiophene-4,3′-azetidine]-3-carbonitrile] | 100 to 1000 | < 10 |
| N#Cc1c(N2C[C@H]3CC[C@@H](C2)N3)nc(OCC2(c3ccccc3)CC2)nc1N1CC2(CCc3sc(N)c(C#N)c32)C1 [Compound 84, 2-amino-1′-[5-cyano-6-[(1R,5S)-3,8-diazabicyclo[3.2.1]octan-3-yl]-2-[(1-phenylcyclopropyl)methoxy]pyrimidin-4-yl]spiro[5,6-dihydrocyclopenta[b]thiophene-4,3′-azetidine]-3-carbonitrile] | 100 to 1000 | < 10 |
| N#Cc1c(N2C[C@H]3CC[C@@H](C2)N3)nc(OCc2[nH]ncc2F)nc1N1CC2(CCc3sc(N)c(C#N)c32)C1 [Compound 90, 2-amino-1′-[5-cyano-6-[(1R,5S)-3,8-diazabicyclo[3.2.1]octan-3-yl]-2-[(4-fluoro-1H-pyrazol-5-yl)methoxy]pyrimidin-4-yl]spiro[5,6-dihydrocyclopenta[b]thiophene-4,3′-azetidine]-3-carbonitrile] | 10000 to 100000 | 10 to 100 |
| N#Cc1c(N2C[C@H]3CC[C@@H](C2)N3)nc(OCC2(CN3CCS(=O)(=O)CC3)CC2)nc1N1CC2(CCc3sc(N)c(C#N)c32)C1 [Compound 95, 2-amino-1′-[5-cyano-6-[(1R,5S)-3,8-diazabicyclo[3.2.1]octan-3-yl]-2-[[1-[(1,1-dioxo-1,4-thiazinan-4-yl)methyl]cyclopropyl]methoxy]pyrimidin-4-yl]spiro[5,6-dihydrocyclopenta[b]thiophene-4,3′-azetidine]-3-carbonitrile] | 1000 to 10000 | < 10 |
| N#Cc1c(N2C[C@H]3CC[C@@H](C2)N3)nc(OCc2n[nH]cc2Br)nc1N1CC2(CCc3sc(N)c(C#N)c32)C1 [Compound 102, 2-amino-1′-[2-[(4-bromo-1H-pyrazol-3-yl)methoxy]-5-cyano-6-[(1S,5R)-3,8-diazabicyclo[3.2.1]octan-3-yl]pyrimidin-4-yl]spiro[5,6-dihydrocyclopenta[b]thiophene-4,3′-azetidine]-3-carbonitrile] | 10000 to 100000 | < 10 |
| N#Cc1c(N2C[C@H]3CC[C@@H](C2)N3)nc(OCc2cn[nH]n2)nc1N1CC2(CCc3sc(N)c(C#N)c32)C1 [Compound 103, 2-amino-1′-[5-cyano-6-[(1R,5S)-3,8-diazabicyclo[3.2.1]octan-3-yl]-2-(2H-triazol-4-ylmethoxy)pyrimidin-4-yl]spiro[5,6-dihydrocyclopenta[b]thiophene-4,3′-azetidine]-3-carbonitrile] | 10000 to 100000 | 10 to 100 |
| N#Cc1c(N2C[C@H]3CC[C@@H](C2)N3)nc(OCc2n[nH]cc2Cl)nc1N1CC2(CCc3sc(N)c(C#N)c32)C1 [Compound 104, 2-amino-1′-[2-[(4-chloro-1H-pyrazol-3-yl)methoxy]-5-cyano-6-[(1R,5S)-3,8-diazabicyclo[3.2.1]octan-3-yl]pyrimidin-4-yl]spiro[5,6-dihydrocyclopenta[b]thiophene-4,3′-azetidine]-3-carbonitrile] | 10000 to 100000 | < 10 |
| N#Cc1c(N2C[C@H]3CC[C@@H](C2)N3)nc(OCc2cc(Cl)[nH]n2)nc1N1CC2(CCc3sc(N)c(C#N)c32)C1 [Compound 105, 2-amino-1′-[2-[(5-chloro-1H-pyrazol-3-yl)methoxy]-5-cyano-6-[(1R,5S)-3,8-diazabicyclo[3.2.1]octan-3-yl]pyrimidin-4-yl]spiro[5,6-dihydrocyclopenta[b]thiophene-4,3′-azetidine]-3-carbonitrile] | 10000 to 100000 | < 10 |
| N#Cc1c(N2C[C@H]3CC[C@@H](C2)N3)nc(OCc2n[nH]cc2C(F)(F)F)nc1N1CC2(CCc3sc(N)c(C#N)c32)C1 [Compound 106, 2-amino-1′-[5-cyano-6-[(1R,5S)-3,8-diazabicyclo[3.2.1]octan-3-yl]-2-[[4-(trifluoromethyl)-1H-pyrazol-3-yl]methoxy]pyrimidin-4-yl]spiro[5,6-dihydrocyclopenta[b]thiophene-4,3′-azetidine]-3-carbonitrile] | 10000 to 100000 | 10 to 100 |
| Cc1nc(COc2nc(N3C[C@H]4CC[C@@H](C3)N4)c(C#N)c(N3CC4(CCc5sc(N)c(C#N)c54)C3)n2)n[nH]1 [Compound 107, 2-amino-1′-[5-cyano-6-[(1R,5S)-3,8-diazabicyclo[3.2.1]octan-3-yl]-2-[(5-methyl-1H-1,2,4-triazol-3-yl)methoxy]pyrimidin-4-yl]spiro[5,6-dihydrocyclopenta[b]thiophene-4,3′-azetidine]-3-carbonitrile] | 10000 to 100000 | 10 to 100 |

Source: patent US12145947B2, “Pyrimidine based modulators and uses thereof” (Quanta Therapeutics, Inc., priority 2022, dated 2024)
